Test results as given in US20070185193A1, “Huvastatin and its preparation and formulation comprising the huvastatin” (HUAIBEI HUIKE PHARMACEUTICAL, CO. LTD., priority 2003, published 2007).

Legend:
[1] = test system: rats; experiment: Animal test: blood lipid level and cholesterol in rats; type: in vivo; conditions: twice per day, 0.05 or 0.1 mg/dose/rat, blood samples after one week
Protocol: Compound 1, 2 or 3 prepared in examples 1-3 were administered to rats (10 rats in each group), respectively, twice per day, 0.05 mg/dose/rat or 0.1 mg/dose/rat. Blood samples were taken and analyzed after one week for blood lipid level and cholesterol.

[2] = physchem; conditions: pH 7.4

In the case of `CCC(C)(C)C(=O)OC1CC(O)C=C2C=CC(C)C(CCC3CC(O)CC(=O)O3)C21` (stereo not drawn) [Compound 1, 2,2-Dimethylbutyricacid-3-hydroxy-8-[2-(4-hydroxy-6-oxo-tetrahydropyran-2-yl)-ethyl]-7-methyl-1,2,3,7,8,8a-hexahydronaphthalen-1-yl ester], the “blood lipid versus control group” value [1] is reported as “lower than that of the control group” and the logD [2] is reported as 0.82.
With `CCC(C)(C)C(=O)OC1CC(O)C=C2C=CC(C)C(CCC3CC(CC(=O)O)OC(C)(C)O3)C21` (stereo not drawn) [Compound 3] the “blood lipid versus control group” value [1] was “lower than that of the control group”.
